{
  "source": "patent US6635757B1",
  "about": "“Process for preparing cyclodextrin inclusion complex” (Vittal Mallya Scientific Research Foundation, priority 2001, dated 2003)",
  "origin": "cited, not measured here",
  "key": {"[1]": {"system": "insects"}},
  "data": [
    {"smiles": "C/C=C(\\C)C(=O)O[C@H]1C[C@@H](OC(C)=O)[C@@]2(C(=O)OC)CO[C@H]3[C@@H](O)[C@@](C)([C@]45O[C@@]4(C)[C@@H]4C[C@H]5O[C@@H]5OC=C[C@@]54O)[C@H]4[C@]1(CO[C@]4(O)C(=O)OC)[C@@H]32", "note": "[Azadirachtin-A]", "values": [
      {"measurement": "Activity compared with NSKE (containing azadirachtin-A<70%)", "setting": "[1]; azadirachtin-A of 99% purity", "value": "not as active as NSKE"}
    ]},
    {"smiles": "C/C=C(\\C)C(=O)O[C@H]1C[C@@H](OC(C)=O)[C@@]2(C(=O)OC)CO[C@H]3[C@@H](O)[C@@](C)([C@]45O[C@@]4(C)[C@H]4C[C@@H]5O[C@@H]5OC=C[C@@]54O)[C@H]4[C@]1(CO[C@]4(O)C(=O)OC)[C@@H]32", "note": "[Azadirachtin]", "values": [
      {"measurement": "Sensitivity to sunlight", "value": "extremely sensitive"},
      {"measurement": "Physiological concentration required to elicit growth retardation", "setting": "[1]; varies from species to species", "value": "1-100 ppm"}
    ]}
  ]
}
